Data published in BigSolDB 2.1.

Oc1ccc(C2(c3ccc(O)cc3)CCCCC2)cc1
solubility (mole fraction)
Settings	in 1,4-dioxane	in THF	in acetone	in ethanol	in ethyl acetate	in isopropanol	in methanol	in n-butanol	in n-propanol
288.15 K	0.0609	0.182	0.0602	0.0073	0.0571	0.0053	0.012	0.012	0.032
293.15 K	0.0621	0.192	0.0652	0.0084	0.0681	0.0061	0.0129	0.0127	0.0355
298.15 K	0.0676	0.206	0.0756	0.0096	0.0769	0.0066	0.0162	0.0133	0.0437
303.15 K	0.0731	0.221	0.0931	0.0117	0.0951	0.0076	0.0208	0.0157	0.0563
308.15 K	0.0866	0.236	0.109	0.013	0.113	0.0089	0.0253	0.0184	0.0654
313.15 K	0.103	0.251	0.127	0.0152	0.136	0.0134	0.0342	0.0236	0.0789
318.15 K	0.116	0.268	0.152	0.017	0.15	0.0192	0.0428	0.028	0.0896
323.15 K	0.127	0.283	0.182	0.0186	0.176	0.0243	0.0547	0.0348	0.103
328.15 K	0.144	0.308	0.219	0.0202	0.199	0.0294	0.0685	0.0431	0.121
